Test results reported in patent US5240961A, “Method of treating reduced insulin-like growth factor and bone loss associated with aging” (priority 1992, dated 1993).
“And” between values parts separate entries of the source, which are not always exact repeats. Identical values can stand only once. “Also recorded” adds a separate entry of the source. Like-named read-outs stand apart in the source and are kept apart here.

Key:
[1] = Serum carnitine after oral L-carnitine in healthy adults over 60 (Example 4); assay type: in vivo, human; conditions: human, serum, po, 2 g/day, individual subjects, 2 g/day oral, three months
Description: (§1) The present invention is further explained by the following examples which should not be construed by way of limiting the scope of the present invention. In the following examples, serum carnitine levels were determined by the method of R. Parvin et al., Anal. Biochem., vol. 79 (1979) pp. 190-201. Serum IGF-1 concentrations were measured by immunoradiometric assay, for example, by IRMA Kit available from Diagnostic Systems Laboratories, Inc., Webster, Texas. Serum osteocalcin levels were measured according to the method of Grunaberg et al., Meth. Enzymology, vol 107 (1984) 516, and which is embodied in an osteocalcin kit available from Biomedical Technologies, Inc., Stoughton, Mass. All mice used in the animal studies were BALB/c strain which is commercially available.
(§2) Seven adults from Example 3 agreed to receive a daily dosage of L-carnitine of 2 g/day, self-administered orally, for three months. Doses were administered four times daily, and each dose consisted of two 250 mg tablets. Of the seven individuals, two individuals dropped out of the study due to unrelated illness; thus, five remained in the study to completion. The following were evaluated by pretreatment and posttreatment comparisons: serum carnitine and serum IGF-1 by known methods, and bone mineral contents by bone scan of thoracic region, i.e., thoracic vertebrae, on a NORLAND scanner.

[2] = test system: bone mineral content of thoracic vertebrae; test: Bone mineral content of thoracic vertebrae by bone scan (Example 4); assay type: in vivo, human
Description: as §2

serum osteocalcin [3] = test: Osteocalcin response to L-carnitine in young mice; assay type: in vivo, mouse (BALB/c)
Description: as §1
Similar tests were performed on six young mice, i.e., 2 months 5 months of age. One group (n=3) was fed a diet with L-carnitine supplementation for three months, the other (n=3) was fed normal, unsupplemented feed (control). Each mouse in the test group was fed a daily oral dose of L-carnitine of about 50 mg/kg of body weight. Mouse blood was sampled prior to beginning of the trial (pretreatment) i.e., at two months of age, and at 5 months of age, and was evaluated for serum osteocalcin and carnitine levels.

serum osteocalcin [4] = test: Serum osteocalcin after oral L-carnitine, double-blind study in patients over 60 (Example 5); assay type: in vivo, human; conditions: for Osteocalcin: individual subjects 010-019, 2 g/day oral; for average serum osteocalcin: treatment group average
Description: as §1
(§3) Nineteen patients (over age 60) were enrolled in a preliminary double-blindstudy to establish the effect of oral L-carnitine treatment on serum IGF-1 and osteocalcin levels. Baseline, i.e., pretreatment, levels of serum IGF-1, osteocalcin and carnitine were measured by known methods. The patients were divided into two groups, control (n=9; subjects 001-009 in Table 5 below) and treatment (n=10; subjects 010-019 in Table 5 below). The treatment group received a daily dosage of 2 g of L-carnitine orally, self-administered, in four separate doses of two 250 mg tablets taken four times per day, for twelve weeks. The control group were given placebo, e.g., simple sugar. Serum samples were drawn every four weeks, and serum carnitine, IGF-1 and osteocalcin were determined.

serum IGF-1 = test: Serum IGF-1 after oral L-carnitine, double-blind study in patients over 60 (Example 5); assay type: in vivo, human; conditions: for IGF-1: individual subjects 010-019, 2 g/day oral; for average serum IGF-1: treatment group average
Description: as §1, §3

With C[N+](C)(C)C[C@H](O)CC(=O)[O-] [L-carnitine] the concentration at 2190 h ([1]; read-out: Carnitine, Free, posttreatment) was 77.2 µM, the concentration at 2190 h ([1]; read-out: Carnitine, Total, posttreatment) was 102 µM and the “bone mineral content of the thoracic vertebral region” value ([2]; all patients, after treatment) was “all patients demonstrated an increase in bone mineral content of the thoracic vertebral region”. The “Bone mineral content, post treatment” value ([2]; individual subjects, 2 g/day oral, three months) was 427.0 g and 1118.4 g and 986.1 g and 736.2 g and 887.7 g, the “Bone mineral content, change” value ([2]; individual subjects, post vs pre treatment, 2 g/day oral, three months) was “+3.85% and +1.39% and +5.69% and +0.72% and +7.35%” and the Osteocalcin (serum osteocalcin [3]; 5 mos., 50 mg/kg/day oral for three months) was 256 ng/mL. The “osteocalcin vs control” value (serum osteocalcin [3]; five months, 50 mg/kg/day) was “maintained a higher level of osteocalcin at five months”, the “osteocalcin vs control, significance” value (serum osteocalcin [4]; 4, 8 and 12 weeks) was “just below significance” and the Osteocalcin (serum osteocalcin [4]; 4 weeks) was 11.8 ng/mL and 13.6 ng/mL and 7.4 ng/mL and 11.5 ng/mL and 7.9 ng/mL and 10.4 ng/mL and 11.6 ng/mL and 3.6 ng/mL and 5.9 ng/mL. The Osteocalcin (serum osteocalcin [4]; 8 weeks) was 11.9 ng/mL and 10.2 ng/mL and 7.0 ng/mL and 10.8 ng/mL and 9.0 ng/mL and 11.0 ng/mL and 2.4 ng/mL and 4.9 ng/mL, the Osteocalcin (serum osteocalcin [4]; 12 weeks) was 9.3 ng/mL and 11.8 ng/mL and 8.7 ng/mL and 7.0 ng/mL and 9.1 ng/mL and 11.4 ng/mL and 6.5 ng/mL and the average serum osteocalcin (serum osteocalcin [4]; eight weeks) was 8.4 ng/mL. For the same compound, the average serum osteocalcin (serum osteocalcin [4]; four weeks) was 9.2 ng/mL, the average serum osteocalcin (serum osteocalcin [4]; twelve weeks) was 9.1 ng/mL and the “IGF-1 vs control at eight and twelve weeks, significance” value (serum IGF-1; eight and twelve weeks) was “just below significance”. For the same compound, the “correlation between pretreatment IGF-1 and increase in IGF-1” value (serum IGF-1; five treated patients with pretreatment IGF-1 under 200 ng/ml, four weeks) was -0.654, the “serum IGF-1 after treatment” value (serum IGF-1; four, eight and twelve week intervals, 1 unit=240 ng) was “above 500 U/L” and the IGF-1 (serum IGF-1; 4 weeks) was 118 ng/mL and 192 ng/mL and 62 ng/mL and 213 ng/mL and 305 ng/mL and 318 ng/mL and 185 ng/mL and 178 ng/mL and 244 ng/mL and 173 ng/mL. For the same compound, the IGF-1 (serum IGF-1; 8 weeks) was 147 ng/mL and 197 ng/mL and 248 ng/mL and 157 ng/mL and 329 ng/mL and 201 ng/mL and 163 ng/mL and 168 ng/mL, the IGF-1 (serum IGF-1; 12 weeks) was 108 ng/mL and 157 ng/mL and 179 ng/mL and 260 ng/mL and 185 ng/mL and 207 ng/mL and the “average serum IGF-1” value (serum IGF-1; eight weeks) was 200.8 ng/mL. The “average serum IGF-1” value (serum IGF-1; four weeks) was 214.0 ng/mL, the “average serum IGF-1” value (serum IGF-1; twelve weeks) was 193.7 ng/mL and the “IGF-1 response” value (serum IGF-1; twelve week test period) was “increased in the carnitine treatment group; also recorded: the lower the baseline level of IGF-1, the greater the increase in IGF-1; also recorded: restored and maintained IGF-1 levels at the normal range”.
